Read-outs that look alike come from different tables or passages of the source.
What was measured:
[1] = biological target: EGFR (Homo sapiens, UniProt P00533); assay: ADP-Glo kinase assay, EGFR; assay type: biochemical; design: purchased BPS Bioscience (assay run externally by the vendor)
[2] = biological target: T1, aurora A kinase (AURKA) (Homo sapiens, UniProt O14965); assay: ADP-Glo kinase assay, Aurora A; assay type: biochemical
T1 construct: purchased BPS Bioscience (assay run externally by the vendor)
T1 sequence (O14965 1-403): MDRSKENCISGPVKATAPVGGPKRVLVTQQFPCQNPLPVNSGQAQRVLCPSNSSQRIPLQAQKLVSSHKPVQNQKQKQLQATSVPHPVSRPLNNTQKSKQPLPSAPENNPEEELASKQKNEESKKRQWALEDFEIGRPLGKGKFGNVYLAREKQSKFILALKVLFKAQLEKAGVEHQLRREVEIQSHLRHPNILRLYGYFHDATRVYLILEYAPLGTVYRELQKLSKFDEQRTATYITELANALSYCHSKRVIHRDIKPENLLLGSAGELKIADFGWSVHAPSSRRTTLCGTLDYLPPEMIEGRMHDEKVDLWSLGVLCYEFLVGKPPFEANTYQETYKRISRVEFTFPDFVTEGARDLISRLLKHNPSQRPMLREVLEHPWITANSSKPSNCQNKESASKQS

EGFR, sequence (P00533 25-1210): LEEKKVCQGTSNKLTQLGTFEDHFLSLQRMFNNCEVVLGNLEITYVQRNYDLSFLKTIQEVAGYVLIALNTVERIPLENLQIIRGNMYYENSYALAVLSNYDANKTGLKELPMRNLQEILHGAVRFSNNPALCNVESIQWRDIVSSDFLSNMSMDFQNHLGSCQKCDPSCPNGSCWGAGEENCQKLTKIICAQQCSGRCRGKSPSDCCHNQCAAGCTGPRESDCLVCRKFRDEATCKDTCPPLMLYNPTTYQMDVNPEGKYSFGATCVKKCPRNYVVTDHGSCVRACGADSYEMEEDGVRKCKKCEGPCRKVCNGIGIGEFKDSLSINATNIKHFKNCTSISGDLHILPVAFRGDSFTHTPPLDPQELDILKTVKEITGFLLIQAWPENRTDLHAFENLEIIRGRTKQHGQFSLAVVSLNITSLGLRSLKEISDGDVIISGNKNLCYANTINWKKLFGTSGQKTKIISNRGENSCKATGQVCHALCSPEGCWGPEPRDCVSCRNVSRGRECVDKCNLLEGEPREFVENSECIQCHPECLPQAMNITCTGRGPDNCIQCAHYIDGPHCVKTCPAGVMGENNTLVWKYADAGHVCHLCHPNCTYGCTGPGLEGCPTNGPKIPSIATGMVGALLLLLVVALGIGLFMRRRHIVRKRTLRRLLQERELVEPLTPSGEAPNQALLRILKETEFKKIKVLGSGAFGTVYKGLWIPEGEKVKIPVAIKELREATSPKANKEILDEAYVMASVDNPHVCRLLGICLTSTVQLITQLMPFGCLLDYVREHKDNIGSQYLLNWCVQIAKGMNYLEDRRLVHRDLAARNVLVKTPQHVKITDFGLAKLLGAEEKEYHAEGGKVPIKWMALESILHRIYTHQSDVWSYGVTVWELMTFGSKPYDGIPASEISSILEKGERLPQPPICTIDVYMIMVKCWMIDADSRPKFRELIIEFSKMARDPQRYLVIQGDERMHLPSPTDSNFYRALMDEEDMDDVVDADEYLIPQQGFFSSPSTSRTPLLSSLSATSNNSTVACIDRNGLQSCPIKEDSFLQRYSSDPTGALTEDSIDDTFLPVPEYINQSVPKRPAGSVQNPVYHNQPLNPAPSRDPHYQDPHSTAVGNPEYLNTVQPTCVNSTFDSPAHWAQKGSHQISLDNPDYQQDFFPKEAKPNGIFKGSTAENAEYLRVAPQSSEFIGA

c1ccc(Cc2ccc(Nc3ncnc4[nH]ccc34)cc2)cc1 [Compound 18, N^4-(4-benzylphenyl)-7H-pyrrolo[2,3-d]pyrimidin-4-amine]
IC50 ([1]; 10 µM ATP, triplicate, read-out: EGFR IC50 ± SD): 63.3 ± 4.58 nM
IC50 ([1]; 10 µM ATP/0.2 mg/ml Poly-Glu-Tyr, read-out: EGFR IC50 (dose-response curve, supplement)): 63.3 nM
EGFR % Activity Set1 ([1]; Log[nM] 0): 96%
EGFR % Activity Set2 ([1]; Log[nM] 0): 92%
EGFR % Activity Set3 ([1]; Log[nM] 0): 95%
EGFR % Activity Set1 ([1]; Log[nM] 1.0): 88%
EGFR % Activity Set2 ([1]; Log[nM] 1.0): 83%
EGFR % Activity Set3 ([1]; Log[nM] 1.0): 88%
EGFR % Activity Set1 ([1]; Log[nM] 1.5): 66%
EGFR % Activity Set2 ([1]; Log[nM] 1.5): 62%
EGFR % Activity Set3 ([1]; Log[nM] 1.5): 65%
EGFR % Activity Set1 ([1]; Log[nM] 2.0): 42%
EGFR % Activity Set2 ([1]; Log[nM] 2.0): 38%
EGFR % Activity Set3 ([1]; Log[nM] 2.0): 43%
EGFR % Activity Set1 ([1]; Log[nM] 2.5): 16%
EGFR % Activity Set2 ([1]; Log[nM] 2.5): 16%
EGFR % Activity Set3 ([1]; Log[nM] 2.5): 16%
EGFR % Activity Set1 ([1]; Log[nM] 3.0): 8%
EGFR % Activity Set2 ([1]; Log[nM] 3.0): 8%
EGFR % Activity Set3 ([1]; Log[nM] 3.0): 9%
EGFR % Activity Set1 ([1]; Log[nM] 3.5): 3%
EGFR % Activity Set2 ([1]; Log[nM] 3.5): 3%
EGFR % Activity Set3 ([1]; Log[nM] 3.5): 3%
EGFR % Activity Set1 ([1]; Log[nM] 4.0): 2%
EGFR % Activity Set2 ([1]; Log[nM] 4.0): 2%
EGFR % Activity Set3 ([1]; Log[nM] 4.0): 2%
EGFR % Activity Set1 ([1]; Log[nM] 4.5): 2%
EGFR % Activity Set2 ([1]; Log[nM] 4.5): 2%
EGFR % Activity Set3 ([1]; Log[nM] 4.5): 2%
EGFR % Activity Set1 ([1]; Log[nM] 5.0): 2%
EGFR % Activity Set2 ([1]; Log[nM] 5.0): 3%
EGFR % Activity Set3 ([1]; Log[nM] 5.0): 2%
Fold better than compound 17 against AURKA [2]: approximately two-fold
IC50 ([2]; 10 µM ATP, triplicate, read-out: AURKA IC50 ± SD): 4950 ± 690 nM
IC50 ([2]; 10 µM ATP/0.2 mg/ml Kemptide, read-out: Aurora A IC50 (dose-response curve, supplement)): 5000 nM
Aurora A % Activity Set1 ([2]; Log[nM] 0): 110%
Aurora A % Activity Set2 ([2]; Log[nM] 0): 93%
Aurora A % Activity Set3 ([2]; Log[nM] 0): 104%
Aurora A % Activity Set1 ([2]; Log[nM] 1.0): 103%
Aurora A % Activity Set2 ([2]; Log[nM] 1.0): 93%
Aurora A % Activity Set3 ([2]; Log[nM] 1.0): 101%
Aurora A % Activity Set1 ([2]; Log[nM] 1.5): 105%
Aurora A % Activity Set2 ([2]; Log[nM] 1.5): 96%
Aurora A % Activity Set3 ([2]; Log[nM] 1.5): 105%
Aurora A % Activity Set1 ([2]; Log[nM] 2.0): 103%
Aurora A % Activity Set2 ([2]; Log[nM] 2.0): 93%
Aurora A % Activity Set3 ([2]; Log[nM] 2.0): 100%
Aurora A % Activity Set1 ([2]; Log[nM] 2.5): 90%
Aurora A % Activity Set2 ([2]; Log[nM] 2.5): 86%
Aurora A % Activity Set3 ([2]; Log[nM] 2.5): 93%
Aurora A % Activity Set1 ([2]; Log[nM] 3.0): 77%
Aurora A % Activity Set2 ([2]; Log[nM] 3.0): 73%
Aurora A % Activity Set3 ([2]; Log[nM] 3.0): 85%
Aurora A % Activity Set1 ([2]; Log[nM] 3.5): 51%
Aurora A % Activity Set2 ([2]; Log[nM] 3.5): 45%
Aurora A % Activity Set3 ([2]; Log[nM] 3.5): 47%
Aurora A % Activity Set1 ([2]; Log[nM] 4.0): 32%
Aurora A % Activity Set2 ([2]; Log[nM] 4.0): 30%
Aurora A % Activity Set3 ([2]; Log[nM] 4.0): 31%
Aurora A % Activity Set1 ([2]; Log[nM] 4.5): 29%
Aurora A % Activity Set2 ([2]; Log[nM] 4.5): 26%
Aurora A % Activity Set3 ([2]; Log[nM] 4.5): 26%
Aurora A % Activity Set1 ([2]; Log[nM] 5.0): 30%
Aurora A % Activity Set2 ([2]; Log[nM] 5.0): 26%
Aurora A % Activity Set3 ([2]; Log[nM] 5.0): 26%

— paper PMC6009956, “Design, synthesis and biological activity of N^4-phenylsubstituted-7H-pyrrolo[2,3-d]pyrimidin-4-amines as dual inhibitors of aurora kinase A and epidermal growth factor receptor kinase” (Journal of Enzyme Inhibition and Medicinal Chemistry, 2017)
